Data reported in ChEMBL document CHEMBL1201862, “PubChem BioAssay data set” (2004).
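Five concentrations, 48 hours, 96-well plates. Abbreviation: GI50, concentration required for 50% inhibition of growth.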 Active and inactive are the calls of the source. Cut-off read from the data, not from the text of the source: active = GI50 up to about 1.1 µM and inactive = higher.

Legend:
Assay in all cases: DTP human tumour cell line panel, 48 h
HOP-62 = test system: HOP-62
NCI-H522 = test system: NCI-H522
MDA-MB-231 = test system: MDA-MB-231
IGROV-1 = test system: IGROV-1
M14 = test system: M14
CAKI-1 = test system: CAKI-1
CCRF-CEM = test system: CCRF-CEM
T47D = test system: T47D
HL-60 = test system: HL-60
OVCAR-5 = test system: OVCAR-5
HCT-116 = test system: HCT-116
HCT-15 = test system: HCT-15
COLO 205 = test system: COLO 205
MCF7 = test system: MCF7
SN12C = test system: SN12C
LOX IMVI = test system: LOX IMVI
SF-539 = test system: SF-539
MDA-N = test system: MDA-N
Malme-3M = test system: Malme-3M
RPMI-8226 = test system: RPMI-8226

In the case of `O=C(NNCC(O)COc1ccccc1)c1ccccc1` (stereo not given), the GI50 (HOP-62) is reported as > 100 µM (inactive), the GI50 (NCI-H522) is reported as > 100 µM (inactive) and the GI50 (MDA-MB-231) is reported as > 100 µM (inactive). For the same molecule, the GI50 (IGROV-1) was > 100 µM (inactive), the GI50 (M14) was > 100 µM (inactive) and the GI50 (CAKI-1) was > 100 µM (inactive). The GI50 (CCRF-CEM) was > 100 µM (inactive), the GI50 (T47D) was > 100 µM (inactive) and the GI50 (HL-60) was > 100 µM (inactive). For the same molecule, the GI50 (OVCAR-5) was > 100 µM (inactive), the GI50 (HCT-116) was > 100 µM (inactive) and the GI50 (HCT-15) was greater than 100 µM. The GI50 (COLO 205) was > 100 µM (inactive), the GI50 (MCF7) was > 100 µM (inactive) and the GI50 (SN12C) was > 100 µM (inactive). The GI50 (LOX IMVI) was > 100 µM (inactive), the GI50 (SF-539) was > 100 µM (inactive) and the GI50 (MDA-N) was > 100 µM (inactive). For the same molecule, the GI50 (Malme-3M) was > 100 µM (inactive) and the GI50 (RPMI-8226) was > 100 µM (inactive).
In the case of `COc1ccc(/C=c2\s/c(=C3/SC(=S)N(c4ccccc4)C3=O)n(-c3ccccc3)c2=O)cc1`, the GI50 (HOP-62) is reported as 21.6 µM (inactive), the GI50 (NCI-H522) is reported as > 100 µM (inactive) and the GI50 (MDA-MB-231) is reported as 49.3 µM (inactive). The GI50 (IGROV-1) was 19.7 µM (inactive), the GI50 (M14) was > 100 µM (inactive) and the GI50 (CAKI-1) was 32.9 µM (inactive). For the same molecule, the GI50 (CCRF-CEM) was 24 µM (inactive), the GI50 (T47D) was > 100 µM (inactive) and the GI50 (HL-60) was > 100 µM (inactive). The GI50 (OVCAR-5) was > 100 µM (inactive), the GI50 (HCT-116) was > 100 µM (inactive) and the GI50 (HCT-15) was greater than 100 µM. The GI50 (COLO 205) was > 100 µM (inactive), the GI50 (MCF7) was 0.264 µM (active) and the GI50 (SN12C) was > 100 µM (inactive). The GI50 (LOX IMVI) was > 100 µM (inactive), the GI50 (SF-539) was 32.8 µM (inactive) and the GI50 (MDA-N) was > 100 µM (inactive). The GI50 (Malme-3M) was > 100 µM (inactive) and the GI50 (RPMI-8226) was > 100 µM (inactive).
With `C[C@]12CC[C@H]3[C@@H](CCC4=CC(=O)CC[C@@]43C)[C@]1(O)CC[C@]2(O)C(=O)CO` the GI50 (HOP-62) was > 100 µM (inactive), the GI50 (NCI-H522) was > 100 µM (inactive) and the GI50 (MDA-MB-231) was > 100 µM (inactive). The GI50 (IGROV-1) was > 100 µM (inactive), the GI50 (M14) was > 100 µM (inactive) and the GI50 (CAKI-1) was > 100 µM (inactive). The GI50 (CCRF-CEM) was > 100 µM (inactive), the GI50 (T47D) was > 100 µM (inactive) and the GI50 (HL-60) was > 100 µM (inactive). For the same molecule, the GI50 (OVCAR-5) was > 100 µM (inactive), the GI50 (HCT-116) was > 100 µM (inactive) and the GI50 (HCT-15) was greater than 100 µM. For the same molecule, the GI50 (COLO 205) was > 100 µM (inactive), the GI50 (MCF7) was > 100 µM (inactive) and the GI50 (SN12C) was > 100 µM (inactive). The GI50 (LOX IMVI) was > 100 µM (inactive), the GI50 (SF-539) was > 100 µM (inactive) and the GI50 (MDA-N) was > 100 µM (inactive). For the same molecule, the GI50 (Malme-3M) was > 100 µM (inactive) and the GI50 (RPMI-8226) was > 100 µM (inactive).
With `FC(F)(F)c1ccc2c(c1)nc(Cc1ccccc1)n2C[C@@H]1CCCN2CCCCC12` (stereo not given in full) the GI50 (HOP-62) was 14.6 µM (inactive), the GI50 (NCI-H522) was 14 µM (inactive) and the GI50 (MDA-MB-231) was 14.2 µM (inactive). For the same molecule, the GI50 (IGROV-1) was 12.9 µM (inactive), the GI50 (M14) was 10.6 µM (inactive) and the GI50 (CAKI-1) was 15.1 µM (inactive). For the same molecule, the GI50 (CCRF-CEM) was 17.1 µM (inactive), the GI50 (T47D) was 14.4 µM (inactive) and the GI50 (HL-60) was 1.59 µM (inactive). For the same molecule, the GI50 (OVCAR-5) was 16.1 µM (inactive), the GI50 (HCT-116) was 14.1 µM (inactive) and the GI50 (HCT-15) was 14.6 µM. The GI50 (COLO 205) was 14.1 µM (inactive), the GI50 (MCF7) was 14.1 µM (inactive) and the GI50 (SN12C) was 13.1 µM (inactive). For the same molecule, the GI50 (LOX IMVI) was 15.1 µM (inactive), the GI50 (SF-539) was 18.8 µM (inactive) and the GI50 (MDA-N) was 12.7 µM (inactive). The GI50 (Malme-3M) was 15.2 µM (inactive) and the GI50 (RPMI-8226) was 17.1 µM (inactive).
In the case of `COc1ccc(/N=c2\ssc(C(=S)Nc3ccc(OC)cc3)c2S)cc1`, the GI50 (HOP-62) is reported as > 100 µM (inactive), the GI50 (NCI-H522) is reported as > 100 µM (inactive) and the GI50 (MDA-MB-231) is reported as > 100 µM (inactive). For the same molecule, the GI50 (IGROV-1) was > 100 µM (inactive), the GI50 (M14) was 71 µM (inactive) and the GI50 (CAKI-1) was > 100 µM (inactive). The GI50 (CCRF-CEM) was 31.6 µM (inactive), the GI50 (T47D) was > 100 µM (inactive) and the GI50 (HL-60) was 36.3 µM (inactive). The GI50 (OVCAR-5) was > 100 µM (inactive), the GI50 (HCT-116) was 88.1 µM (inactive) and the GI50 (HCT-15) was 64.9 µM. For the same molecule, the GI50 (COLO 205) was > 100 µM (inactive), the GI50 (MCF7) was 69 µM (inactive) and the GI50 (SN12C) was > 100 µM (inactive). The GI50 (LOX IMVI) was > 100 µM (inactive), the GI50 (SF-539) was > 100 µM (inactive) and the GI50 (MDA-N) was > 100 µM (inactive). The GI50 (Malme-3M) was > 100 µM (inactive) and the GI50 (RPMI-8226) was > 100 µM (inactive).
For `Cc1c(Cc2ccccc2)c(Cc2ccccc2)c(C)[s+]1[O-]`, the GI50 (HOP-62) was 50.4 µM (inactive), the GI50 (NCI-H522) was 23.7 µM (inactive) and the GI50 (MDA-MB-231) was 19.2 µM (inactive). For the same molecule, the GI50 (IGROV-1) was 36.8 µM (inactive), the GI50 (M14) was 21.2 µM (inactive) and the GI50 (CAKI-1) was 22.7 µM (inactive). For the same molecule, the GI50 (CCRF-CEM) was 19.1 µM (inactive), the GI50 (T47D) was 12.9 µM (inactive) and the GI50 (HL-60) was 12.5 µM (inactive). The GI50 (OVCAR-5) was 20.1 µM (inactive), the GI50 (HCT-116) was 24.1 µM (inactive) and the GI50 (HCT-15) was 31.3 µM. The GI50 (COLO 205) was 20.5 µM (inactive), the GI50 (MCF7) was 20.3 µM (inactive) and the GI50 (SN12C) was 26.5 µM (inactive). The GI50 (LOX IMVI) was 20.7 µM (inactive), the GI50 (SF-539) was 45.2 µM (inactive) and the GI50 (MDA-N) was 24.6 µM (inactive). For the same molecule, the GI50 (Malme-3M) was 33.2 µM (inactive) and the GI50 (RPMI-8226) was 19.7 µM (inactive).
In the case of `Cc1cn(C2CC(N=[N+]=[N-])C(CO[Si](C)(C)C(C)(C)C)O2)c(=O)[nH]c1=O` (stereo not given), the GI50 (HOP-62) is reported as 16.4 µM (inactive), the GI50 (NCI-H522) is reported as 16.8 µM (inactive) and the GI50 (MDA-MB-231) is reported as 13.6 µM (inactive). For the same molecule, the GI50 (IGROV-1) was 18.7 µM (inactive), the GI50 (M14) was 21.4 µM (inactive) and the GI50 (CAKI-1) was 16.4 µM (inactive). The GI50 (CCRF-CEM) was 24.5 µM (inactive), the GI50 (T47D) was 29.4 µM (inactive) and the GI50 (HL-60) was 28.7 µM (inactive). For the same molecule, the GI50 (OVCAR-5) was 23 µM (inactive), the GI50 (HCT-116) was 16.1 µM (inactive) and the GI50 (HCT-15) was 18.3 µM. The GI50 (COLO 205) was 17.5 µM (inactive), the GI50 (MCF7) was 18 µM (inactive) and the GI50 (SN12C) was 15.6 µM (inactive). The GI50 (LOX IMVI) was 16.9 µM (inactive), the GI50 (SF-539) was 18 µM (inactive) and the GI50 (MDA-N) was 17 µM (inactive). For the same molecule, the GI50 (Malme-3M) was 14.3 µM (inactive) and the GI50 (RPMI-8226) was 17.9 µM (inactive).
`CC1=NN(c2nc(N)nc(CSc3cc(Cl)c(C)cc3S(N)(=O)=O)n2)C(C)(C)C1` was tested, and the GI50 (HOP-62) was > 10 µM (inactive), the GI50 (NCI-H522) was > 10 µM (inactive) and the GI50 (MDA-MB-231) was > 10 µM (inactive). For the same molecule, the GI50 (IGROV-1) was > 10 µM (inactive), the GI50 (M14) was > 10 µM (inactive) and the GI50 (CAKI-1) was > 10 µM (inactive). The GI50 (CCRF-CEM) was > 10 µM (inactive), the GI50 (T47D) was > 10 µM (inactive) and the GI50 (HL-60) was > 10 µM (inactive). The GI50 (OVCAR-5) was > 10 µM (inactive), the GI50 (HCT-116) was > 10 µM (inactive) and the GI50 (HCT-15) was greater than 10 µM. The GI50 (COLO 205) was > 10 µM (inactive), the GI50 (MCF7) was > 10 µM (inactive) and the GI50 (SN12C) was > 10 µM (inactive). The GI50 (LOX IMVI) was > 10 µM (inactive), the GI50 (SF-539) was > 10 µM (inactive) and the GI50 (MDA-N) was > 10 µM (inactive). For the same molecule, the GI50 (Malme-3M) was > 10 µM (inactive) and the GI50 (RPMI-8226) was > 10 µM (inactive).
In the case of `C[C@]12C=CC(=O)C=C1CC[C@@H]1[C@@H]2CC[C@]2(C)OC(=O)CC[C@@H]12` [TESTOLACTONE], the GI50 (HOP-62) is reported as > 467 µM (inactive), the GI50 (NCI-H522) is reported as 320 µM (inactive) and the GI50 (MDA-MB-231) is reported as 327 µM (inactive). The GI50 (IGROV-1) was 453 µM (inactive), the GI50 (M14) was > 500 µM (inactive) and the GI50 (CAKI-1) was 372 µM (inactive). For the same molecule, the GI50 (CCRF-CEM) was 431 µM (inactive), the GI50 (T47D) was > 337 µM (inactive) and the GI50 (HL-60) was 310 µM (inactive). For the same molecule, the GI50 (OVCAR-5) was > 489 µM (inactive), the GI50 (HCT-116) was > 466 µM (inactive) and the GI50 (HCT-15) was greater than 488 µM. The GI50 (COLO 205) was 480 µM (inactive), the GI50 (MCF7) was 457 µM (inactive) and the GI50 (SN12C) was 495 µM (inactive). For the same molecule, the GI50 (LOX IMVI) was > 492 µM (inactive), the GI50 (SF-539) was 454 µM (inactive) and the GI50 (MDA-N) was > 500 µM (inactive). For the same molecule, the GI50 (Malme-3M) was 480 µM (inactive) and the GI50 (RPMI-8226) was 450 µM (inactive).
